Experimental data taken from patent publication US20240245741A1, “EXTRACTION METHOD USING AN AQUEOUS ALKANEDIOL” (Minasolve SAS, priority 2021, published 2024).
≈ marks a conversion by molar mass, not a printed value. Where two headings read alike, the source gives them in different places. One block for each compound: values may come before it.

Legend:
physchem = details: for solubility at 5 min: thermodynamic from solid
Method: All experiments were performed at ambient temperature. Each model substance was weighted into test tubes, and a precise volume of each solvent mixture was added in order to obtain saturated solutions. The test tubes were vortexed for 5 min and subsequently centrifuged (12000 rpm during 15 min at 25° C.). An aliquot of the supernatant was diluted for UV-spectrophotometric assay. Absorbance measurements were made at wavelengths adapted to each studied molecule. High Performance Liquid Chromatography (HPLC-DAD) was used for Rosmarinic Acid (RA) quantification. Determination of Radical Scavenging Capacity was conducted through DPPH assay.
Each experiment was performed in triplicate.
The solubilisation power of aqueous Pentylene Glycol solutions (from 0 to 100% of PG) for five different model substances was compared to that of 80 wt. % aqueous ethanol.
Various mixtures of bio-based PG and bio-based caprylyl glycol (CG) were explored for dissolving hesperidin. The proportion of bio-based caprylyl glycol ranged from 0 to 30%.
Regarding solubility in the ternary mixture of PG/CG/water, six different mixtures out of the monophasic region of the ternary system were prepared (see FIG. 2): Three water-rich solvent mixtures, one with a high percentage of PG, one with a high percentage of CG and one with a similar percentage of all three components. All the alkanediols used in this study were bio-based or “green”.

[1] = Ternary phase diagrams PG/water/lipophilic ingredient (monophasic region); details: with 85% PG, 10% water
[2] = 25 °C, organic solvent or mixture
[3] = aqueous with cosolvent or surfactant or cyclodextrin

Structure (SMILES): COc1ccc([C@@H]2CC(=O)c3c(O)cc(O[C@@H]4O[C@H](CO[C@@H]5O[C@@H](C)[C@H](O)[C@@H](O)[C@H]5O)[C@@H](O)[C@H](O)[C@H]4O)cc3O2)cc1O [HE, Hesperidin]
Solubilisation power relative to 80% ethanol (physchem; 5% CG in PG versus 80% ethanol): 82.4%
Solubility compared to PG alone (physchem; 5% CG in PG versus PG alone): 5 times
Solubility (physchem; (PG:CG) solution, 1% CG): 0.078 ± 0.005 g/litre of solvent
Solubility (physchem; (PG:CG) solution, 5% CG): 0.11 ± 0.006 g/litre of solvent
Solubility (physchem; (PG:CG) solution, 10% CG): 0.071 ± 0.003 g/litre of solvent
Solubility (physchem; (PG:CG) solution, 20% CG): 0.071 ± 0.007 g/litre of solvent
Solubility (physchem; (PG:CG) solution, 30% CG): 0.06 ± 0.01 g/litre of solvent
Solubility (physchem; solvent 10% PG in water, ambient temperature): 0.013 ± 0.003 g/litre of solvent
Solubility (physchem; solvent 30% PG in water, ambient temperature): 0.177 ± 0.006 g/litre of solvent
Solubility (physchem; solvent 50% PG in water, ambient temperature): 0.218 ± 0.024 g/litre of solvent
Solubility (physchem; solvent 70% PG in water, ambient temperature): 0.19 ± 0.011 g/litre of solvent
Solubility (physchem; solvent 80% EtOH, ambient temperature): 0.13 ± 0.009 g/litre of solvent
Solubility (physchem; solvent 90% PG in water, ambient temperature): 0.118 ± 0.012 g/litre of solvent
Solubility (physchem; solvent 100% H2O, ambient temperature): 0.00 g/litre of solvent
Solubility (physchem; solvent 100% H2O, ambient temperature, listed as He): completely insoluble
Solubility (physchem; solvent 100% PG, ambient temperature): 0.0216 ± 0.002 g/litre of solvent
Solubility (physchem; solvent 100% PG, ambient temperature, listed as Hesperidin): 0.022 ± 0.002 g/litre of solvent
Concentration of natural substance in a saturated solution (physchem; ternary mixture No 1: 64.7% PG, 17.6% CG, 17.7% H2O): 340 ± 30 µg/mL
Concentration of natural substance in a saturated solution (physchem; ternary mixture No 2: 37.5% PG, 31.2% CG, 31.3% H2O): 440 ± 30 µg/mL
Concentration of natural substance in a saturated solution (physchem; ternary mixture No 3: 31.2% PG, 12.5% CG, 56.3% H2O): 460 ± 10 µg/mL
Concentration of natural substance in a saturated solution (physchem; ternary mixture No 4: 32.1% PG, 55.1% CG, 12.8% H2O): 300 ± 30 µg/mL
Concentration of natural substance in a saturated solution (physchem; ternary mixture No 5: 25% PG, 12.5% CG, 62.5% H2O): 400 ± 30 µg/mL
Concentration of natural substance in a saturated solution (physchem; ternary mixture No 6: 16.65% PG, 8.9% CG, 74.45% H2O): 310 ± 10 µg/mL
Concentration relative to 80% ethanol (physchem; ternary mixture No. 3 versus 80% ethanol): 3.6 times

Structure (SMILES): O=C(O)c1cc(O)c(O)c(O)c1 [GA, Gallic acid]
Solubility in 70% PG relative to water (factor) (physchem): ~12.4 times
solubility at 5 min (physchem; [2]): 42000 ± 540 µg/mL (≈ 247 mM)
solubility at 5 min (physchem; 25 °C, water): 10500 ± 1100 µg/mL (≈ 61.7 mM)
Solubility in 100% PG compared to that of 70% PG (physchem; 5 min): 32.3%
Solubilization power relative to 80% ethanol (physchem; 5 min): 58.75%
solubility at 5 min (physchem; [3]): 95100 ± 8120 µg/mL (≈ 559 mM)

Structure (SMILES): C=C(C)[C@H]1CC=C(C)CC1 [limonene]
Proportion in a self-stabilized ternary mixture [1]: 5%

Next, values leading:

Solubilisation power relative to water (physchem): 27.2 times
Solubilisation relative to water (physchem): 26.8 times
solubility at 5 min (physchem; [2]): 12800 ± 1200 µg/mL (≈ 35.5 mM)
solubility at 5 min (physchem; 25 °C, water): 6600 ± 2400 µg/mL (≈ 18.3 mM)
Solubility relative to solubility in 80% ethanol (physchem; 5 min): 92%
solubility at 5 min (physchem; [3]): 302000 ± 9400 µg/mL (≈ 839 mM)
Structure (SMILES): O=C(/C=C/c1ccc(O)c(O)c1)O[C@H](Cc1ccc(O)c(O)c1)C(=O)O [RA, Rosmarinic Acid]

Solubility (physchem): completely insoluble
Amount dissolved compared to hexane (physchem; ternary point 4 versus hexane): three times more
Structure (SMILES): CC1=C(/C=C/C(C)=C/C=C/C(C)=C/C=C/C=C(C)/C=C/C=C(C)/C=C/C2=C(C)CCCC2(C)C)C(C)(C)CCC1 [B-C, β-carotene]

solubility at 5 min (physchem; 25 °C, aqueous with cosolvent or surfactant or cyclodextrin): 1900 ± 45 µg/mL (≈ 5.16 mM)
solubility at 5 min (physchem; [2]): 5850 ± 310 µg/mL (≈ 15.9 mM)
solubility at 5 min (physchem; 25 °C, water): 0.5 µg/mL (≈ 0.00136 mM)
Solubility compared to 80% ethanol (physchem; 5 min): 1.6 fold
solubility at 5 min (physchem; [3]): 3650 ± 220 µg/mL (≈ 9.91 mM)
solubility at 5 min (physchem; organic solvent or mixture): 7900 µg/mL (≈ 21.4 mM)
Structure (SMILES): COc1cc(/C=C/C(=O)CC(=O)/C=C/c2ccc(O)c(OC)c2)ccc1O [CU, Curcumin]
